Data reported in patent EP3789378A1, “PIPERIDINES OR PIPERIDONES SUBSTITUTED WITH UREA AND HETEROARYL” (Grünenthal GmbH, priority 2019, dated 2021).

Each compound was assayed against T1, h FPR2 (Homo sapiens, UniProt P25090) (assay: Agonistic activity in hFPR2-Aq-CHO cells (FLIPR Calcium 5 fluorescence assay)). Details: 11 point half log dilution, final assay concentration from 10µM.
T1 construct: expressed in transfected cells
T1 sequence (P25090 1-351): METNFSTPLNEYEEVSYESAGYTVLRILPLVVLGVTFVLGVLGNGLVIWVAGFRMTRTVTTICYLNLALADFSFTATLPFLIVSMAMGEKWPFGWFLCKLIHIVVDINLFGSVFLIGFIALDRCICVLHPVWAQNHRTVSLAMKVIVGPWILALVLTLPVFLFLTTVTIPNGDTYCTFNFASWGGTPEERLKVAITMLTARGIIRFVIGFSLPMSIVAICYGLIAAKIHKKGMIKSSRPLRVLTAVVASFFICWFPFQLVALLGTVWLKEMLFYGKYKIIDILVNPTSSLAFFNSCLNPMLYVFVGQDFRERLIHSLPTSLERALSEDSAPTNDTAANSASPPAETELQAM
Format: cell-based
Protocol: After washing, the cells are plated at 10,000 cells per well in 40 µL complete medium in a 384-well sterile clear bottom black plate and incubated in a 5% CO2 incubator at 37°C for 18 hours. Plating media is removed from each well by decanting and gentle tapping before 30 µL of 0.5X Calcium 5 dye solution (0.5X FLIPR Calcium 5 dye (Molecular devices, R8186)); HBSS; 20mM HEPES; 2.5mM Probenecid; 0.025% Pluronic F-127; pH adjusted to 7.4) is added to each well and the plate is then incubated at 37°C for 30 minutes. For the assay the plate is equilibrated at room temperature for 10 minutes before placing it in the FLIPR. Compounds are dissolved in DMSO and serially diluted over an 11 point half log (3.16 fold) dilution (2 mM to 20 nM). Compounds are then diluted 1:50 in assay buffer (HBSS; 20mM HEPES; 2.5mM Probenecid; 0.05% gelatin; 0.1% BSA; pH adjusted to 7.4) just before performing the assay. Compounds are finally added to the respective wells of the cell plate (final assay concentration 10 µM to 100 pM) using the FLIPR (e.g. FLIPR-Tetra, Molecular Devices) and fluorescence readings are captured for 5 minutes. The increase in fluorescence from the basal reading in the presence of the compounds is compared with that of the control wells (wells having no compound) to calculate the activity of the compounds. The EC50 values of the compounds can be determined using e.g. Graph pad Prism software.
Assay method for measuring agonistic activity of compounds in hFPR2-Aq-CHO cell
Cryo-vial containing 6x10^6 cells (hFPR1-Gα15-CHO or hFPR2-Aq-CHO) was thawed in a 37°C water bath. Cells were suspended in 10ml of respective complete growth media (F12(1X)HAM media (Gibco; Cat#11765); 10% HI-FBS (Gibco; Cat#10082); 0.4 mg/ml Geneticin (Gibco; Cat#10131); 0.25 mg/ml Zeocin (Invitrogen; Cat#R25001)) in a 15ml centrifuge tube. The cell viability was checked with the help of Trypan Blue dye. Upon washing the cells, those were plated in a 384-well sterile clear bottom black plate (Greiner Bioone Cat# 781091) so that, each well contained 10,000 cells in 40µl complete growth media. The plate was incubated in a 5% CO2 incubator at 37°C for 18 hours. Before assay on the next day, the cell plating media was removed from each well of the plate by decanting and gentle tapping. 30µl of 0.5X Calcium 5 dye solution (0.5X FLIPR Calcium 5 dye (Molecular devices Cat# R8186); HBSS (Invitrogen; Cat#14025); 20mM HEPES (Sigma; Cat#H0887); 2.5mM Probenecid (Sigma; Cat#P8761); 0.025% Pluronic F-127 (Sigma; Cat#P2443); pH adjusted to 7.4) was added to each well. The plate was then incubated at 37°C for 30 minutes. Following which the plate was equilibrated at room temperature for 10 minutes before placing it in a 384 well FLIPR for assay. Compounds were dissolved in DMSO and serially diluted following 11 point half log (3.16 fold) dilution with a starting concentration of 2mM (Final assay concentration 10µM). Aliquots of above mentioned each dilution was mixed with assay buffer (HBSS (Invitrogen; Cat#14025); 20mM HEPES (Sigma; Cat#H0887); 2.5mM Probenecid (Sigma; Cat#P8761); 0.05% gelatin (Sigma; Cat#G1890); 0.1% BSA (Sigma; Cat#A3059); pH adjusted to 7.4) just before performing the assay. Compounds were added to the respective wells of the assay ready cell plate with the help of the FLIPR (FLIPR Tetra) and fluorescence readings were captured for 5 minutes to measure any agonistic response of the compounds. The increase in fluorescence readings from the basal reading in presence of the compounds were compared with that of the control wells (wells having no compound) to calculate the agonistic activity of the compounds. The EC50 values of the compounds were determined using the Graph pad Prism software.

EC50 [nM]	SMILES
4	Cc1cc(NC(=O)N[C@@H]2CCN(c3cncc(C)n3)C[C@H]2c2ccc(Cl)cn2)sn1 (relative stereo) [Ex-34, trans-1-[5-chloro-1'-(6-methyl-pyrazin-2-yl)-1',2',3',4',5',6'-hexahydro-[2,3']bipyridinyl-4'-yl]-3-(3-methyl-isothiazol-5-yl)-urea]
3	Cc1cnc(N2CC[C@@H](NC(=O)Nc3cc(C)ns3)[C@H](c3ccc(Cl)cn3)C2)cn1 (relative stereo) [Ex-41, trans-1-[5-chloro-1'-(5-methyl-pyrazin-2-yl)-1',2',3',4',5',6'-hexahydro-[2,3']bipyridinyl-4'-yl]-3-(3-methyl-isothiazol-5-yl)-urea]
0.04	COc1ccc([C@@H]2CN(Cc3ccc(C(F)(F)F)nc3)CC[C@H]2NC(=O)Nc2ccc(Cl)cc2)nc1 (relative stereo) [Ex-60, trans-1-(4-chlorophenyl)-3-(3-(5-methoxypyridin-2-yl)-1-((6-(trifluoromethyl)pyridin-3-yl)methyl)piperidin-4-yl)urea]
0.6	COc1ccc([C@@H]2CN(Cc3cnc(C)nc3)CC[C@H]2NC(=O)Nc2ccc(Cl)cc2)nc1 (relative stereo) [Ex-61, trans-1-(4-chlorophenyl)-3-[3-(5-methoxy-2-pyridyl)-1-[(2-methylpyrimidin-5-yl)methyl]-4-piperidyl]urea]
0.06	COc1ccc([C@@H]2CN(Cc3cncc(C)c3)CC[C@H]2NC(=O)Nc2ccc(Cl)cc2)nc1 (relative stereo) [Ex-64, trans-1-(4-chlorophenyl)-3-(3-(5-methoxypyridin-2-yl)-1-((5-methylpyridin-3-yl)methyl)piperidin-4-yl)urea]
0.09	COc1ccc([C@@H]2CN(Cc3ccc(C4CC4)nc3)CC[C@H]2NC(=O)Nc2ccc(Cl)cc2)nc1 (relative stereo) [Ex-65, trans-1-(4-chlorophenyl)-3-[1-[(6-cyclopropylpyridin-3-yl)methyl]-3-(5-methoxypyridin-2-yl)piperidin-4-yl]urea]
0.2	COc1ccc([C@@H]2CN(Cc3cnc(OC)nc3)CC[C@H]2NC(=O)Nc2ccc(Cl)cc2)nc1 (relative stereo) [Ex-66, trans-1-(4-chlorophenyl)-3-[3-(5-methoxypyridin-2-yl)-1-[(2-methoxypyrimidin-5-yl)methyl]piperidin-4-yl]urea]
0.08	COc1ccc([C@@H]2CN(Cc3ccc(C)nc3)CC[C@H]2NC(=O)Nc2ccc(Cl)cc2)nc1 (relative stereo) [Ex-67, trans-1-(4-chlorophenyl)-3-[-3-(5-methoxypyridin-2-yl)-1-[(6-methylpyridin-3-yl)methyl]piperidin-4-yl]urea]
0.09	COc1ccc([C@H]2CN(Cc3cncc(F)c3)CC[C@@H]2NC(=O)Nc2ccc(Cl)cc2)nc1 (relative stereo) [Ex-68, trans-(4-chlorophenyl)-3-[1-[(5-fluoropyridin-3-yl)methyl]-3-(5-methoxypyridin-2-yl)piperidin-4-yl]urea]
0.07	COc1ccc([C@@H]2CN(Cc3cncc(Cl)c3)CC[C@H]2NC(=O)Nc2ccc(Cl)cc2)nc1 (relative stereo) [Ex-69, trans-1-(4-chlorophenyl)-3-[1-[(5-chloropyridin-3-yl)methyl]-3-(5-methoxypyridin-2-yl)piperidin-4-yl]urea]
2	O=C(Nc1ccc(Cl)cc1)N[C@@H]1CCN(Cc2cncc(F)c2)C[C@H]1c1ccc(Cl)s1 (relative stereo) [Ex-70, trans-1-(4-chlorophenyl)-3-(3-(5-chlorothiophen-2-yl)-1-((5-fluoropyridin-3-yl)methyl)piperidin-4-yl)urea]
2	O=C(Nc1ccc(Cl)cc1)N[C@@H]1CCN(Cc2cncc(Cl)c2)C[C@H]1c1ccc(Cl)s1 (relative stereo) [Ex-71, trans-1-(4-chlorophenyl)-3-(1-((5-chloropyridin-3-yl)methyl)-3-(5-chlorothiophen-2-yl)piperidin-4-yl)urea]
2	Cc1cncc(CN2CC[C@@H](NC(=O)Nc3ccc(Cl)cc3)[C@H](c3ccc(Cl)s3)C2)c1 (relative stereo) [Ex-72, trans-1-(4-chlorophenyl)-3-(3-(5-chlorothiophen-2-yl)-1-((5-methylpyridin-3-yl)methyl)piperidin-4-yl)urea]
4	O=C(Nc1ccc(Cl)cc1)N[C@@H]1CCN(Cc2ccc(C3CC3)nc2)C[C@H]1c1ccc(Cl)s1 (relative stereo) [Ex-73, trans-1-(4-chlorophenyl)-3-[3-(5-chlorothiophen-2-yl)-1-[(6-cyclopropylpyridin-3-yl)methyl]piperidin-4-yl]urea]
2	O=C(Nc1ccc(Cl)cc1)N[C@@H]1CCN(Cc2ccc(C(F)(F)F)nc2)C[C@H]1c1ccc(Cl)s1 (relative stereo) [Ex-74, trans-1-(4-chlorophenyl)-3-[3-(5-chlorothiophen-2-yl)-1-{[6-(trifluoromethyl)pyridin-3-yl]methyl}piperidin-4-yl]urea]
3	COc1ncc(CN2CC[C@@H](NC(=O)Nc3ccc(Cl)cc3)[C@H](c3ccc(Cl)s3)C2)cn1 (relative stereo) [Ex-75, trans-1-(4-chlorophenyl)-3-[3-(5-chlorothiophen-2-yl)-1-[(2-methoxypyrimidin-5-yl)methyl]piperidin-4-yl]urea]

Same assay, conditions: agonistic response at 0.1µM

activation at 0.1 µM [%]	h FPR2 FLIPR % @0.1µM [%@0.1µM]	SMILES
10		COc1ccc([C@@H]2CN(Cc3ccn(C)n3)CC[C@H]2NC(=O)Nc2ccc(Cl)cc2)nc1 (relative stereo) [Ex-40, trans-1-(4-chlorophenyl)-3-[3-(5-methoxypyridin-2-yl)-1-[(1-methyl-1H-pyrazol-3-yl)methyl]piperidin-4-yl]urea]
10		Cc1cc(CN2CC[C@@H](NC(=O)Nc3ccc(Cl)cc3)[C@H](c3ccc(Cl)s3)C2)no1 (relative stereo) [Ex-45, trans-1-(4-chlorophenyl)-3-[3-(5-chlorothiophen-2-yl)-1-[(5-methyl-1,2-oxazol-3-yl)methyl]piperidin-4-yl]urea]
	40	COc1ccc([C@@H]2CN(CC3CCOCC3)CC[C@H]2NC(=O)Nc2ccc(Cl)cc2)nc1 (relative stereo) [Ex-50, trans-1-(4-chlorophenyl)-3-[(5-methoxypyridin-2-yl)-1-(oxan-4-ylmethyl)piperidin-4-yl]urea]
26		COc1ccc([C@@H]2CN(Cc3ccn(S(C)(=O)=O)n3)CC[C@H]2NC(=O)Nc2ccccc2)nc1 (relative stereo) [Ex-59, trans-3-[1-[(1-methanesulfonyl-1H-pyrazol-3-yl)methyl]-3-(5-methoxypyridin-2-yl)piperidin-4-yl]-1-phenylurea]
44		Cc1cc(NC(=O)N[C@@H]2CCN(Cc3ncccn3)C[C@H]2c2ccc(Cl)s2)sn1 (relative stereo) [Ex-63, trans-1-[3-(5-chlorothiophen-2-yl)-1-(pyrimidin-2-ylmethyl)piperidin-4-yl]-3-(3-methyl-1,2-thiazol-5-yl)urea]
